The test system of one series is HTB22. The series is described as follows: CCK8 anticancer activity / cytotoxicity test, HTB22. Format: cell-based. Particulars: read-out: Approximate IC50, primary screening. As for the experimental part:
(§1) The IC50 was calculated by SPSS statistics (IBM). […] All cytotoxicity tests were performed in six biological replicates.
(§2) The anticancer activity against 231BR is of highest interest. […] Figure 3 depicts the anticancer activities of these compounds.

For another series, the system named is CRL-1620 (CRL). The series is described as follows: CCK8 anticancer activity / cytotoxicity test, CRL. Format: cell-based. Particulars: 48 h.
For the next series, the system named is MDA-MB-231BR (231BR). The series is described as follows: CCK8 anticancer activity / cytotoxicity test, 231BR. Type of series: cell-based. On the procedure: as §1, §2
Another series relates to HTB131. The series is described as follows: CCK8 anticancer activity / cytotoxicity test, HTB131. Type of series: cell-based.
The subject of the next series is MDA-MB-231 (231). As to the kind of experiment: CCK8 anticancer activity / cytotoxicity test, 231. Format: cell-based, human.
The nature of series [1]: CCK8 cytotoxicity test on normal cell line MCF10A. The settings on record: human. On the procedure:
(§3) MDA-MB-231 (231) and HTB131 were grown with RPIM-1640 medium (with 10% Fetal Bovine Serum and 2% Penicillin-Streptomycin Solution). MDA-MB-231BR (231BR), CRL-1620 (CRL), and MCF10A were grown with DMEM (with 10% Fetal Bovine Serum and 2% Penicillin-Streptomycin Solution). HTB22 was grown with EMEM (with 10% Fetal Bovine Serum and 2% Penicillin-Streptomycin Solution). Cell lines were taken out from liquid nitrogen and thawed in a 37°C water bath. After thawing, cell cultures were transferred to 75 cm^2 flasks and incubated at 37°C with 5% CO2 for 4–7 days. After reaching 80% of cell confluence, cells were ready for subculturing or testing.
(§4) Anticancer activity tests were performed using a Cell Counting Kit-8 (CCK8, SigmaAldrich) following manufacturer’s instruction ([Shen et al., 2016]). Briefly, 100 µl of diluted cell suspension (approximately 10000 cells) was transferred to 96-well plate, incubated at 37°C with 5% CO2 for 24 h. Then, the compounds were diluted into a serial of concentrations in DMSO. Next, 0.5 µl of diluted compounds were added to 100 µl of cell medium and gently mixed, resulting in the final concentration of DMSO at 0.5%. 100 µl of the compound contained medium were then used to replace the original medium and incubated at 37°C for 48 h. After incubation with compounds, 10 µl of CCK8 reagent was added to each well and mixed by gently tapping the plate. Then, the plate was incubated at 37°C for 2–4 h until the orange color was dark enough to measure. The plate was measured using a Multiskan microplate reader (Fisher Scientific) at 450 nm. The IC50 was calculated by SPSS statistics (IBM). […] All cytotoxicity tests were performed in six biological replicates. Each compound was performed two cycles of screening: primary screening using 10 times serial dilution to determine the approximate concentration and then secondary screening using a narrow concentration range to acquire the accurate IC50.
(§5) The newly synthesized molecules in which their binding affinities were predicted in silico were tested on five different breast cancer lines, MDA-MB-231 (231), MDA-MB-361 (361), HTB131, HTB22, and MDA-MB-231BR (231BR), and one brain cancer cell line, CRL-1620 (CRL). […] Among these cell lines, 231BR attracted most of our interest because it is a brain metastatic specific breast cancer cell line that has 100% rate of brain metastasis and cannot migrate to any other organs ([Yoneda et al., 2001]). The anticancer capacities of each compound were first screened by 10 times dilution to generate different molar concentrations ranging in 5 orders of magnitudes. This wide concentration range was applied for primary screening (Supplementary Table S3) to narrow down the targets. The approximate IC50 was estimated in the primary screening step and used to design the concentration range of the secondary cytotoxicity tests (Supplementary Table S4). […] Anticancer drug taxol (paclitaxel) was used as the reference to estimate the efficacy of each compound. […] The anticancer activity against 231BR is of highest interest. Meanwhile, the same treatments were performed against the normal breast cell line, MCF10A, to test their cytotoxicity. […] A negative logarithm of IC50 was applied to represent the corresponding anticancer activity.

A further series deals with MCF10A. The series is described as follows: CCK8 cytotoxicity test on normal cell line MCF10A. On the procedure: as §3, §4, §5
(Tetrazolium dyes change colour on reduction, which living cells bring about.)

A further series has as its system MDA-MB-361 (361). As to the kind of experiment: CCK8 anticancer activity / cytotoxicity test, 361. The settings on record: Homo sapiens. Format: cell-based. As for the experimental part: as §1, §2
Setting [2] is: HTB22, 48 h, 10 times serial dilution.
Setting [3] is: CRL, 10 times serial dilution, read-out: Approximate IC50, primary screening.
[4] abbreviates: 231BR, 48 h, 10 times serial dilution, read-out: Approximate IC50, primary screening.
The mark [5] stands for this setting: Homo sapiens, MCF-10A, 48 h, read-out: Approximate IC50, primary screening.

Data on eight molecules can be found in paper PMC9578020, “Design, synthesis, molecular modeling, and bioactivity evaluation of 1,10-phenanthroline and prodigiosin (Ps) derivatives and their Copper(I) complexes against mTOR and HDAC enzymes as highly potent and effective new anticancer therapeutic drugs” (Frontiers in Pharmacology, 2022).

Each structure is given as a SMILES string. Where “and” joins values, the source holds several entries; their conditions need not be identical. Identical values can stand only once. Like-named read-outs stand apart in the source and are kept apart here.

On to `CCC1=N/C(=C\c2[nH]c(-c3ccn[nH]3)cc2OC)C=C1` [Compound L9], for which the IC50 in the series on HTB22 (setting [2]), with CRL-1620 (CRL) (setting [3]) and in the series with MDA-MB-231BR (231BR) (setting [4]) was greater than 168 µM each time.
`CCC1=N/C(=C\c2[nH]c(-c3ncc[nH]3)cc2OC)C=C1` [Compound L10]: the IC50 with MDA-MB-231BR (231BR) (setting [4]) turned out to be 285 µM.
On to `CCC1=N/C(=C\c2[nH]c(-c3ccc4cc[nH]c4c3)cc2OC)C=C1` [Compound L13], for which the IC50 worked out at 12.6 µM with HTB131 (HTB131, 48 h, narrow concentration range, read-out: IC50, secondary cytotoxicity test); 6.53 µM in the series with CRL-1620 (CRL) (CRL, narrow concentration range, read-out: IC50, secondary cytotoxicity test); 3.1 µM with MDA-MB-231BR (231BR) (setting [4]); 5.06 µM with MDA-MB-231BR (231BR) (231BR, 48 h, narrow concentration range, read-out: IC50, secondary cytotoxicity test); 3.49 µM in the series with MDA-MB-231 (231) (Homo sapiens, MDA-MB-231, 231, 48 h, narrow concentration range, read-out: IC50, secondary cytotoxicity test). Moreover, in series [1] (MCF10A normal breast cells), the IC50 at 48 h was 3.7 µM.
In the case of `CCC1=N/C(=C\c2[nH]c(-c3ccc4[nH]ccc4c3)cc2OC)C=C1` [Compound L14], the IC50 in the series with HTB22 (setting [2]) and in the series on CRL-1620 (CRL) (setting [3]) was greater than 79 µM in each case.
For `CCC1=N/C(=C\c2[nH]c(-c3cccc4cc[nH]c34)cc2OC)C=C1` [Compound L15], in the series on MDA-MB-231BR (231BR) (48 h, 231BR, 48 h, 10 times serial dilution, read-out: Approximate IC50, primary screening), the IC50 was 32 µM.
In the case of `CCC1=NC(=Cc2[nH]c(-c3cccn3C(=O)OC(C)(C)C)cc2OC)C=C1` [L ^7], the IC50 in the series with MDA-MB-231BR (231BR) came to 0.0463 µM; in the series with MDA-MB-231 (231), 0.0758 µM; with MCF10A, 3.39 µM. The “times lower cytotoxicity on normal cell line” value in the series with MCF10A is on record as “more than 80 times”.
Take `CCCCCC1=C/C(=C/c2[nH]c(-c3ccc[nH]3)cc2OC)N=C1C` [Ps, Prodigiosin]: the IC50 in the series on HTB22 (48 h) was greater than 75 µM; in the series on HTB131 (48 h, read-out: Approximate IC50, primary screening), 0.75 to 7.5 µM; in the series on HTB131 (48 h, read-out: IC50, secondary cytotoxicity test) it was 2.81 µM and 0.91 µg/mL; with CRL-1620 (CRL) (read-out: Approximate IC50, primary screening) it was 0.75 to 7.5 µM; in the series with CRL-1620 (CRL) (read-out: IC50, secondary cytotoxicity test), 4.64 µM and 1.5 µg/mL; in the series on MDA-MB-231BR (231BR) (48 h, read-out: IC50, secondary cytotoxicity test, 231BR, 48 h), 0.312 µg/mL. Besides, the IC50 was 0.963 µM in the series with MDA-MB-231BR (231BR) (48 h, read-out: IC50, secondary cytotoxicity test, 231BR, 48 h, narrow concentration range); 0.75 to 7.5 µM in the series on MDA-MB-231 (231) (Homo sapiens, MDA-MB-231, 48 h, read-out: Approximate IC50, primary screening); 0.511 µg/mL and 1.58 µM in the series with MDA-MB-231 (231) (Homo sapiens, MDA-MB-231, 48 h, read-out: IC50, secondary cytotoxicity test); 7.5 µM in the series on MCF10A (setting [5]); greater than 7.5 µM in the series on MDA-MB-361 (361) (MDA-MB-361, 48 h, read-out: Approximate IC50, primary screening, 361, 48 h, 10 times serial dilution); greater than 75 µM in the series on MDA-MB-361 (361) (MDA-MB-361, 48 h, read-out: IC50, secondary cytotoxicity test, 361, 48 h, Table S4). For the same molecule, the IC50 in the series on MDA-MB-361 (361) (MDA-MB-361, 48 h, read-out: IC50, secondary cytotoxicity test, 361, 48 h, increased drug concentration) is 228 µM; in the series with MDA-MB-361 (361) (MDA-MB-361, 48 h, read-out: IC50, secondary cytotoxicity test, 361, 48 h, increased drug concentration (mg/mL)), 0.074 mg/mL. Besides, the IC50 at 48 h in series [1] was 8.75 µM and 2.84 µg/mL.
In the case of `CC(=O)O[C@H]1C(=O)[C@@]2(C)[C@H]([C@H](OC(=O)c3ccccc3)[C@]3(O)C[C@H](OC(=O)[C@H](O)[C@@H](NC(=O)c4ccccc4)c4ccccc4)C(C)=C1C3(C)C)[C@]1(OC(C)=O)CO[C@@H]1C[C@@H]2O` [Taxol, paclitaxel, reference compound], the IC50 in the series on HTB131 (HTB131, 48 h, 10 times serial dilution, read-out: Approximate IC50, primary screening) is 0.057 µM; in the series on CRL-1620 (CRL) (setting [3]), 0.028 µM; in the series with MDA-MB-231BR (231BR) (setting [4]), 0.039 µM; in the series with MDA-MB-231 (231) (Homo sapiens, MDA-MB-231, 231, 48 h, 10 times serial dilution, read-out: Approximate IC50, primary screening) it was 0.0213 µM; in the series on MCF10A (setting [5]) it was greater than 7.5 µM; in the series on MDA-MB-361 (361) (MDA-MB-361, 361, 48 h, 10 times serial dilution, read-out: Approximate IC50, primary screening) it was greater than 7.5 µM. For the same molecule, in the series with MCF10A (normal cell line MCF10A relative to 231BR), the “times lower cytotoxicity on normal cell line” value was “more than 700 times”.
